Reference: patent US20260297106A1, “SPIROCYCLIC SUBSTITUTED OXOISOINDOLINYL PIPERIDINE-2,6-DIONE COMPOUND” (Bristol-Myers Squibb Company, priority 2023, published 2026)

Legend:
Type in all cases: cell-based
[1] = biological target: T1, IKZF4 Eos (Homo sapiens, UniProt Q96SW2+Q9H2S9); experiment: Human Regulatory T Cell Reprogramming Assay (IKZF4 Eos); conditions: CD4+ CD127low CD25+ Treg cells, 12-13 days; for DC50: concentration reducing protein level by 50% vs DMSO; for Dmax: Regulatory T cell, human, read-out: Maximum Observed Degradation IKZF4 Eos
T1 construct: T cells were isolated from fresh healthy leukopaks; endogenous in cells; host or cells: FACS-sorted primary human CD4+ CD127low CD25+ Treg cells from healthy leukopaks
Description: (§1) Human CD4^+ T cells were isolated from fresh healthy leukopaks (Stemcell Technologies) using the RosetteSep Human CD4^+ T cell enrichment cocktail (Stemcell Technologies) and Ficoll density gradient centrifugation. Leukopaks were diluted with an equal volume of phosphate-buffered saline (PBS [Gibco]) supplemented with 2% fetal bovine serum (FBS, VWR Lifescience) and incubated with RosetteSep Human CD4^+ T cell enrichment cocktail for 20 minutes before layering on Ficoll-Paque Plus solution (GE Health Care). The cell-rich interface layer was harvested and washed twice with PBS supplemented with 2% FBS. Regulatory T cells were then isolated manually using the EasySep Human CD4 CD1271WCD25^+ Regulatory T cell isolation kit (Stemcell Technologies) according to the manufacturer's instructions. Cells were rested overnight in Roswell Park Memorial Institute (RPMI) 1640 media (Gibco) supplemented with 10% FBS, Pen/Strep (Gibco), MEM-NEAA (Gibco), and sodium pyruvate (Gibco) in a humidified incubator (37° C., 5% CO2). Cells were then stained for CD4 (clone: RPA-T4, Biolegend), CD25 (clone: 2A3, BD Biosciences), and CD127 (clone: hIL-7R-M21, BD Biosciences). CD4^+ CD127^lowCD25^+ cells were sorted on a BD FACS Aria Fusion sorter to a purity of 95% or greater. Sorted cells were immediately used or cryopreserved for downstream assays.
(§2) Fresh or cryopreserved FACS-sorted CD4^+ CD127^lowCD25^+ Treg cells were cultured at 25,000-50,000 cells/well of 96-well round bottom plates in RPMI 1640 media (Gibco) supplemented with 10% FBS, Pen/Strep (Gibco), MEM-NEAA (Gibco), and sodium pyruvate (Gibco). Cells were stimulated with Treg Xpander beads (Thermo Fisher) at cells-to-beads ratio of 1:4 in the presence of 500 U/mL recombinant human IL-2 (Proleukin). Compounds were added at titrated doses and cells were incubated at 37° C., 5% CO2 for 12-13 days. Recombinant human IL-2 and compound were replenished every 2-3 days during the entire culture duration. On day 12 or 13, cells were restimulated with phorbol 12-myristate 13-acetate (PMA) and ionomycin in the presence of the protein transport inhibitors brefeldin A and monensin (eBioscience Cell Stimulation Cocktail plus protein transport inhibitors, 500×, Catalog number 00-4975-93) before proceeding with flow cytometry staining and analysis.
(§3) For flow cytometry staining, cells were washed twice with flow cytometry staining buffer (Thermo Fisher) and incubated in Human Tru-stain Fc block (Biolegend) for 10 minutes before adding eFluor780 viability dye (Thermo Fisher) and surface marker antibody cocktail for 30 minutes at 4° C. Cells were then fixed and permeabilized by incubation with FoxP3 transcription factor staining buffer (Thermo Fisher) for 30 minutes at 4° C. as per the kit manufacturer's instructions. Cells were washed twice with the Perm/Wash buffer supplied in the kit as per the manufacturer's instructions and incubated overnight at 4° C. with an intracellular antibody cocktail comprised of antibodies specific for the transcription factors shown in Table C. Cells were washed twice with Perm/Wash buffer and resuspended in flow cytometry staining buffer (Thermo Fisher) prior to acquisition. Sample acquisition and analysis was performed using a BD LSRFortessa (BD Biosciences) flow cytometer. Single stain controls for each fluorochrome were prepared using UltraComp eBead Compensation Beads (Thermo Fisher). Data were analyzed using FlowJo version 10 and GraphPad Prism Software.
(§4) Table C-1 lists the maximum observed degradation of the IKZF2 protein and IKZF4 protein as measured in the Human Regulatory T Cell Reprogramming assay. The results in Table C-1 were rounded to two digits. In the Human Regulatory T Cell Reprogramming assay, a value of 100% indicated no detectable protein remaining or complete degradation of the protein; and a value of 0% indicated no detectable degradation of the protein by the test compound.

[2] = biological target: T2, IKZF2 Helios (Homo sapiens, UniProt Q96SW2+Q9UKS7); experiment: Jurkat Cellular Degradation Assay (IKZF2 Helios); parameters: endogenous in cells; conditions: Jurkat cells, 72 h; for DC50: concentration reducing protein level by 50% vs DMSO; for Dmax: human, 100% = no detectable protein remaining, read-out: IKZF2 Helios max % deg. observed
Description: Jurkat cells were plated at 80,000 cells/well in 40 μL RPMI+10% FBS in a 384-well cell culture plate prior to using acoustic dispensing technology for adding a compound of interest. Cell cultures were incubated for 72 h at 37° C. and 5% CO2. In order to facilitate analysis, cell cultures were spun down at 200 rpm for 5 min and the supernatant was discarded. After shaking the plate to dislodge the cell pellet, cells were resuspended in 50 μL of Fixation Buffer (eBioscience FoxP3 buffer set 00-5523-00) for 60 min at room temperature. After centrifuging and discarding the supernatant, cells were permeabilized with 50 μL of Permeabilization buffer (eBioscience FoxP3 buffer set 00-5523-00) for 10 min at room temperature. Following permeabilization, cells were spun down and the supernatant was replaced with 20 μL fluorescently labelled antibodies against Helios, Ikaros and Aiolos or corresponding Isotype controls in 1× Permeabilization buffer (Ikaros-Alexa488 [Biolegend, Cat #368408, 1:50], Helios-PE [CST, Cat #29360, 1:50], Aiolos-Alexa647 [Biolegend, Cat #371106 Biolegend, 1:25]) and staining reactions were incubated for 1 h at room temperature while protected from light. Subsequently, 30 μL of 1× Permeabilization buffer was added prior to centrifuging the cells and discarding the supernatant. Stained cells were resuspended in 25 μL of flow cytometry staining buffer [PBS+0.2% bovine serum albumin (BSA)] and analyzed using an Intellicyt Ique Plus flow cytometer.
Table A-1 lists the maximum observed degradation of the IKZF1 protein, IKZF2 protein, and IKZF3 protein as measured in the Jurkat Cellular Degradation assay. The results in Table A-I were rounded to two digits. In the Jurkat Cellular Degradation assay, a value of 100% indicated no detectable protein remaining or complete degradation of the protein; and a value of 0% indicated no detectable degradation of the protein by the test compound.

[3] = biological target: T2, IKZF2 Helios; experiment: Human Regulatory T Cell Reprogramming Assay (IKZF2 Helios); parameters: T cells were isolated from fresh healthy leukopaks; endogenous in cells; host or cells: FACS-sorted primary human CD4+ CD127low CD25+ Treg cells from healthy leukopaks; conditions: CD4+ CD127low CD25+ Treg cells, 12-13 days; for DC50: concentration reducing protein level by 50% vs DMSO; for Dmax: Regulatory T cell, human, read-out: Maximum Observed Degradation IKZF2 Helios
Description: as §1, §2, §3, §4

T2 sequence (Q9UKS7 whole entry): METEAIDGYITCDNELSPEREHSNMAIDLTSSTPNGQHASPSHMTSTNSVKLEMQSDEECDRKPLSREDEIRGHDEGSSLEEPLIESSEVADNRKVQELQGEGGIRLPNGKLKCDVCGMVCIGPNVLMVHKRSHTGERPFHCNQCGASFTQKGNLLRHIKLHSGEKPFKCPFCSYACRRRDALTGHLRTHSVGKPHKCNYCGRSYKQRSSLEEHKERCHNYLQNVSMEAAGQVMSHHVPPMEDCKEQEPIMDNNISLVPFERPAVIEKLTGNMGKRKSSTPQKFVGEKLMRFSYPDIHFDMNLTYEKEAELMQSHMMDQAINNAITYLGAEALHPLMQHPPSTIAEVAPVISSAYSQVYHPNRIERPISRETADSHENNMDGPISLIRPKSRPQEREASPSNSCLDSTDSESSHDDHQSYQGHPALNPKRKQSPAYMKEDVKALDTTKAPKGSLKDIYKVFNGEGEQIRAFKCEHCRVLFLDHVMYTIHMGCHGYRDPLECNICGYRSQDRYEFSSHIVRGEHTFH
T2 sequence (Q96SW2 whole entry): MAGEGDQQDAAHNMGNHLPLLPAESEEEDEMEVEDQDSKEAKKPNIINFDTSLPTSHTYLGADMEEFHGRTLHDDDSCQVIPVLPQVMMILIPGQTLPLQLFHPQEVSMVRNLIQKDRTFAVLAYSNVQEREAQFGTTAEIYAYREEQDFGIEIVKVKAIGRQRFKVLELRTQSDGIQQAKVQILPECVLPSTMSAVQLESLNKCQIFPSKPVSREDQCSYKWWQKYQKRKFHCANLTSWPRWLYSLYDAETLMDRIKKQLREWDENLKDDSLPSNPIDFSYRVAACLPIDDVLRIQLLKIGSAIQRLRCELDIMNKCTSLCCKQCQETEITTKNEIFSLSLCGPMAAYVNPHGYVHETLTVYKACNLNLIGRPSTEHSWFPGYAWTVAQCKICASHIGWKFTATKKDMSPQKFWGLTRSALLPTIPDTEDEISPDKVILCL
T2 sequence (Q16531 whole entry partner): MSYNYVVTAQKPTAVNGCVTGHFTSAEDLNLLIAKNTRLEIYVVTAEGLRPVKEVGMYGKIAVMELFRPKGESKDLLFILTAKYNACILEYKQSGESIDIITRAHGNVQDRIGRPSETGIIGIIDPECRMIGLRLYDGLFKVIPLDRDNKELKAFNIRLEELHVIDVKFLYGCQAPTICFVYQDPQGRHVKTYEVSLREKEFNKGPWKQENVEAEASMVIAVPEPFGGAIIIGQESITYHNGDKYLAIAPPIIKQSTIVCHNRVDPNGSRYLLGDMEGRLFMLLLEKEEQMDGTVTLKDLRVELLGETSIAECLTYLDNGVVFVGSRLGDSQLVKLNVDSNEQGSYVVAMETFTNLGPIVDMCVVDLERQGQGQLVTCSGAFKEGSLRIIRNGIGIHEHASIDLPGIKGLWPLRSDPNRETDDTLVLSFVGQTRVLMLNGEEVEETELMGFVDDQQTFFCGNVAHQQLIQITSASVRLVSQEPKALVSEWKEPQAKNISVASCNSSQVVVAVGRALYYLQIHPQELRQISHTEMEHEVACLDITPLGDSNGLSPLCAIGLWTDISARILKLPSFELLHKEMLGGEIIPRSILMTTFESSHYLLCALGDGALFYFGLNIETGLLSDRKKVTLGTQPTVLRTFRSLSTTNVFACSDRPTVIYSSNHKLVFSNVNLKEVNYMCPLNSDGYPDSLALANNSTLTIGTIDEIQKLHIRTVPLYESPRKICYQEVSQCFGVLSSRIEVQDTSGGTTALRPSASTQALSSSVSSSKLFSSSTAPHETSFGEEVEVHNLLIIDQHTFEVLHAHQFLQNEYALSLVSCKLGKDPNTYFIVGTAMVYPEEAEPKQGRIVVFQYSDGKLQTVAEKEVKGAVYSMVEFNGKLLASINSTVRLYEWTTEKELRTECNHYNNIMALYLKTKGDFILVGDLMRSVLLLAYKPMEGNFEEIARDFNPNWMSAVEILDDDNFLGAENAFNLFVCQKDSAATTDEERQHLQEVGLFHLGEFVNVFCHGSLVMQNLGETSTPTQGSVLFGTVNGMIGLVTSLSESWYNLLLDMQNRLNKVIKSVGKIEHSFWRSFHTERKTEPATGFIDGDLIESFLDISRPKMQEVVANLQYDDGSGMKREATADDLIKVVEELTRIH
T1 sequence (Q9H2S9 whole entry): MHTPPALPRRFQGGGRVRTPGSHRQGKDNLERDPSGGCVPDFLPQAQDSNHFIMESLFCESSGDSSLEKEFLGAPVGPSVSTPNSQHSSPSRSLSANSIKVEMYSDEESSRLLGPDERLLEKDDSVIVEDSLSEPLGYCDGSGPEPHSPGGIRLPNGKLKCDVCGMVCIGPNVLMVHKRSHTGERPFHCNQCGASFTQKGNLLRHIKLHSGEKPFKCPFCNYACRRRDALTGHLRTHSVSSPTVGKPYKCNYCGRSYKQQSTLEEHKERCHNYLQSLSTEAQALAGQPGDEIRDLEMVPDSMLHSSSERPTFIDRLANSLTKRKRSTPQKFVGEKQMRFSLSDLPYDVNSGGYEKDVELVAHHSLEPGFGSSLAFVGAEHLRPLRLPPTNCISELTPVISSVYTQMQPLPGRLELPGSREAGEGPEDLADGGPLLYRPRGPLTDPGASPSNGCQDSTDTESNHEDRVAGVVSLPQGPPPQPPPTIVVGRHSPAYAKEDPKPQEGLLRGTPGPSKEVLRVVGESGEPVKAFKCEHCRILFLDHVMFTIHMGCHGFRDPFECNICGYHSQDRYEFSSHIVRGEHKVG
T1 sequence (Q96SW2 whole entry): as the sequence (Q96SW2 whole entry) above
T1 sequence (Q16531 whole entry partner): as the sequence (Q16531 whole entry partner) above

| SMILES | DC50 [1] [nM] | Dmax [1] [%] | DC50 [2] [nM] | DC50 [3] [nM] | Dmax [3] [%] | Dmax [2] [%] |
| --- | --- | --- | --- | --- | --- | --- |
| O=C1CCC(N2Cc3c(ccc(-c4cc(CN5CC(c6ccccc6)C5)ccn4)c3F)C2=O)C(=O)N1 (centres unmarked) [Comparative Compound A, 3-(4-fluoro-1-oxo-5-(4-((3-phenylazetidin-1-yl)methyl)pyridin-2-yl)isoindolin-2-yl) piperidine-2,6-dione] | 0.1 | 92 | 2.9 | 2.2 | 92 | – |
| Nc1nc(-c2ccc3c(c2)CN(C2CCC(=O)NC2=O)C3=O)ccc1CN1CC2(CCC2)C1 (centres unmarked) [Comparative Compound B, 3-(5-(5-((2-azaspiro[3.3]heptan-2-yl)methyl)-6-aminopyridin-2-yl)-1-oxoisoindolin-2-yl) piperidine-2,6-dione] | 1 | 95 | 8 | 25 | 90 | 90 |
| Nc1nc(-c2ccc3c(c2F)CN(C2CCC(=O)NC2=O)C3=O)ccc1CN1CC2(CCCOC2)C1 (centres unmarked) [Example 1, 3-(5-(5-((6-oxa-2-azaspiro[3.5]nonan-2-yl)methyl)-6-aminopyridin-2-yl)-4-fluoro-1-oxoisoindolin-2-yl) piperidine-2,6-dione] | 3.4 | 65 | 8.5 | 38 | 85 | 91 |
